{"source": "patent US20090215763A1", "about": "“SUBSTITUTED BENZOXAZINONES” (P&H Therapeutics, Inc., priority 2008, published 2009)", "test_system": "spontaneously hypertensive rat (SHR)", "assay": "In vivo model study: telemetry cardiovascular assessment in SHR rats", "conditions": "male SHR rats, intraperitoneal administration, radiotelemetry, preliminary evaluation", "source_text": "The objective of this study is to define the magnitude, time course and dose/concentration response relationship of compound 13 antihypertensive effects when administered intraperitoneally (IP) to male SHR rats maintained on standard and low salt diets. In Vivo Phase I: Three male SHR rats, 7-10 weeks of age weighing 150-300 g, will be instrumented with radiotelemetry transmitters. Following an approximate 2-week recovery period, animals will receive a single intraperitoneal dose of test article. Cardiovascular data will be collected for approximately 24 hours following dosing. Cardiovascular data is collected from non-restrained animals implanted with radiotelemetry devices. 1. SHR rats, 7-10 weeks of age weighing 150-300 g, are implanted with radiotelemetry devices. Transmitters are placed subcutaneously in the ventral abdominal region and blood pressure is monitored from the femoral artery. Animals will be allowed to recover at least 10 days prior to data collection. 5. At least 1 hour of baseline is collected from undisturbed animals prior to each dosing. Following test article administration, approximately 24 hours of data is collected from undisturbed animals to assess hemodynamic effects."}
{"smiles": "CCc1nc(N)nc(N)c1-c1ccc2c(c1)N(CCNC(=O)OC)C(=O)[C@](C)(c1cc(F)cc(F)c1)O2", "note": "[Compound 13]", "values": [{"measurement": "blood pressure reduction in SHR (antihypertensive effect)", "value": "blood pressure reduction"}]}
